In brackets after ≈: the same amount, converted by molar mass.
Columns and labels:
Aphidius rhopalosiphi [1] = test: LR50; higher = less toxic; conditions: acute; duration: 48 hours; mortality
Oncorhynchus mykiss = conditions: chronic/long-term; duration: 96 days; growth
Cyprinodon variegatus = conditions: acute; duration: 96 hours; mortality
Coturnix japonica = conditions: acute; oral; diet; mortality
Daphnia magna = conditions: chronic/long-term; duration: 21 days; reproduction
Aphidius rhopalosiphi [2] = conditions: not reported; reproduction
Apis mellifera = conditions: acute; duration: 48 hours; dermal; mortality
Tagia sp. = conditions: acute; mortality
Lepomis macrochirus = conditions: acute; duration: 96 hours; mortality
[3] = reproduction developmental, reproduction

COP(=S)(OC)SCN1C(=O)c2ccccc2C1=O [Phosmet]
LR50 (Aphidius rhopalosiphi [1]): 1.95 g/ha | NOEC (Oncorhynchus mykiss): 0.0032 mg/L | LD50 (Colinus virginianus; acute, oral, mortality): 57 mg/kg | NOEC (Colinus virginianus; [3]): 7.5 mg/kg-day | LC50 (Cyprinodon variegatus): 0.17 µg/mL (≈ 0.536 µM) | LC50 (Coturnix japonica): 406 mg/kg-day | NOEC (Daphnia magna): 0.00078 mg/L | LEL (Aphidius rhopalosiphi [2]): 1.41 g/ha | LD50 (Apis mellifera): 0.22 µg/piece | NOAEL (Rattus norvegicus; acute, neurology): 4.5 mg/kg-day | LD50 (Rattus norvegicus; acute, oral, mortality): 113 mg/kg | NOAEL (Rattus norvegicus; [3]): 1 mg/kg-day | NOAEL (Rattus norvegicus; subchronic, duration: 13 weeks, neurology): 1.5 mg/kg-day | NOAEL (Rattus norvegicus; subchronic, duration: 90 days, oral, other): 2 mg/kg-day | LC50 (Tagia sp.): 104 mg/kg | LC50 (Lepomis macrochirus): 0.0197 µg/mL (≈ 0.0621 µM)
